{
  "source": "patent US20030232862A1",
  "about": "(priority 2002, published 2003)",
  "key": {"[1]": {"tested_on": "premalignant lesions in mouse mammary gland organ culture", "experiment": "Mammary gland organ culture model; on mammary gland organ culture: key: −: Not active; +: Slightly active; + +: Moderately active; + + +: Strongly active; + + + +: Highly active", "format": "cell-based", "excerpt": "Test compounds identified by the above methods can be tested for antineoplastic activity by their ability to inhibit the incidence of pre-neoplastic lesions in a mammary gland organ culture system. This mouse mammary gland organ culture technique has been successfully used by other investigators to study the effects of known antineoplastic agents such as certain NSAIDs, retinoids, tamoxifen, selenium, and certain natural products, and is useful for validation of the screening method of the present invention.\nFor example, female BALB/c mice can be treated with a combination of estradiol and progesterone daily, in order to prime the glands to be responsive to hormones in vitro. The animals are sacrificed, and thoracic mammary glands are excised aseptically and incubated for ten days in growth media supplemented with insulin, prolactin, hydrocortisone, and aldosterone. DMBA (7,12-dimethylbenz(a)anthracene) is added to medium to induce the formation of premalignant lesions. Fully developed glands are then deprived of prolactin, hydrocortisone, and aldosterone, resulting in the regression of the glands but not the pre-malignant lesions.\nThe test compound is dissolved in DMSO and added to the culture media for the duration of the culture period. At the end of the culture period, the glands are fixed in 10% formalin, stained with alum carmine, and mounted on glass slides. The incidence of forming mammary lesions is the ratio of the glands with mammary lesions to […]. The incidence of mammary lesions in test compound treated glands is compared with that of the untreated glands.\nThe extent of the area occupied by the mammary lesions can be quantitated by projecting an image of the gland onto a digitation pad. The area covered by the gland is traced on the pad and considered as 100% of the area. The space covered by each of the non-regressed structures is also outlined on the digitization pad and quantitated by the computer.\nMammary gland organ culture experiment were performed as previously described (Mehta and Moon, Cancer Research, 46: 5832-5835, 1986)."}, "[2]": {"tested_on": "β-catenin and PKG levels in SW480 cells", "experiment": "Western blot of β-catenin and PKG in SW480 cells", "format": "cell-based, human", "protocol": "SW480 cells treated with exisulind as described previously are harvested from the microfuge tubes by rinsing once with ice-cold PBS. The cells are lysed by modified RIPA buffer for 15 minutes with agitation. The cell lysate is spun down in a cold room. The supernatants are transferred to fresh microcentrifuge tubes immediately after spinning. BioRad DC Protein Assay (Temecula, Calif.) is performed to determine the protein concentrations in samples. The samples are normalized for protein concentration, as described above.\n50 μg of each sample is loaded onto a 10% SDS gel. SDS-PAGE is performed, and the proteins then are transferred to a nitrocellulose membrane. The blotted nitrocellulose membrane is blocked in freshly prepared TBST containing 5% nonfat dry milk for one hour at room temperature with constant agitation.\nA goat-anti-PKG primary antibody is diluted to the recommended concentration/dilution in fresh TBST/5% nonfat dry milk. The nitrocellulose membrane is placed in the primary antibody solution and incubated one hour at room temperature with agitation. The nitrocellulose membrane is washed three times for ten minutes each with TBST. The nitrocellulose membrane is incubated in a solution containing a secondary peroxidase (POD) conjugated rabbit anti-goat antibody for 1 hour at room temperature with agitation. The nitrocellulose membrane is washed three times for ten minutes each time with TBST. The detection is performed by using Boehringer Mannheim BM blue POD substrate.\nSW480 cells were treated with exisulind or vehicle (0.1% DMSO) for 48 hours. 50 μg supernatant of each cell lysate was loaded onto a 10% SDS-gel and blotted to a nitrocellulose membrane, and the membrane was probed with rabbit-anti-β-catenin and rabbit anti-PKG antibodies.\nThis observation was made by culturing SW480 cells with either 200, 400 or 600 μM exisulind or vehicle (0.1% DMSO). The cells are harvested 48 hours post treatment and processed for immunoblotting. Immuno-reactive protein can be detected by Western blot. […]"}, "[3]": {"tested_on": "HT-29 cells", "experiment": "Apoptosis and necrosis by morphology (acridine orange/ethidium bromide) in HT-29 cells", "format": "cell-based, human", "settings": "HT-29, six days", "excerpt": "Apoptosis occurs naturally during normal tissue turnover and during embryonic development of organs and limbs. Apoptosis also is induced by cytotoxic T-lymphocytes and natural killer cells, by ionizing radiation and by certain chemotherapeutic drugs. Inappropriate regulation of apoptosis is thought to play an important role in many pathological conditions including cancer, AIDS, or Alzheimer's disease, etc. Compounds can be screened for induction of apoptosis using cultures of tumor cells maintained under conditions as described above. Treatment of cells with test compounds involves either pre- or post-confluent cultures and treatment for two to seven days at various concentrations. Apoptotic cells are measured in both the attached and “floating” compartments of the cultures. […]\nReference compounds and test compounds were analyzed for their novel PDE inhibitory activity in accordance with the protocols for the assay, supra. […] Apoptotic and necrotic cell death was determined previously (Duke and Cohen, In: Current Protocols in Immunology, 3.17.1 - 3.17.16, New York, John Wiley and Sons, 1992). […]\nThe apoptosis inducing activity for a series of phosphodiesterase inhibitors was determined. […] Apoptosis and necrosis were determined morphologically after acridine orange and ethidium bromide labeling in accordance with the assay described, supra. […]"}},
  "data": [
    {"smiles": "CC1=C(CC(=O)O)c2cc(F)ccc2/C1=C\\c1ccc(S(C)(=O)=O)cc1", "note": "[Exisulind, 5-fluoro-2-methyl-1-(p-methylsulfonylbenzylidene)-3-indenylacetic acid]", "values": [
      {"measurement": "inhibition of formation of premalignant lesions", "setting": "[1]; FIG. 17", "result": "effectively inhibit"},
      {"measurement": "Mammary Gland Organ Culture", "setting": "[1]; Table 9 qualitative profile", "result": "+ + +"},
      {"measurement": "reduction of β-catenin expression compared to control", "setting": "[2]; SW480, 200, 400 or 600 μM, 48 hours", "result": 50, "unit": "%"},
      {"measurement": "PKG level", "setting": "[2]; SW480, 48 hours, FIG. 19", "result": "increase of PKG"},
      {"measurement": "β-catenin level", "setting": "[2]; SW480, 48 hours, FIG. 19", "result": "drop of β-catenin"},
      {"measurement": "apoptotic and necrotic cell death", "setting": "[3]", "result": "capable of causing apoptotic cell death without inducing necrosis"}
    ]}
  ]
}
